Results as given in patent publication EP3057949B1, “SECONDARY ALCOHOL QUINOLINYL MODULATORS OF ROR GAMMA T” (Janssen Pharmaceutica NV, priority 2013, dated 2015).

How the values were obtained:
[1] = target: T1, human RORγt ligand binding domain (RORγt LBD) (Homo sapiens, UniProt P51449); experiment: ThermoFluor® Assay (RORγt thermal shift binding); conditions: 0.065 mg/mL RORγt, 60 µM 1,8-ANS, pH 7.0; estimated from concentration response curves
T1 construct: His-tag (N); TurboTEV protease cleavage site (ENLYFQG) (N); made in house; host or cells: E. coli (pHIS1, modified pET vector)
T1 sequence (P51449 258-518): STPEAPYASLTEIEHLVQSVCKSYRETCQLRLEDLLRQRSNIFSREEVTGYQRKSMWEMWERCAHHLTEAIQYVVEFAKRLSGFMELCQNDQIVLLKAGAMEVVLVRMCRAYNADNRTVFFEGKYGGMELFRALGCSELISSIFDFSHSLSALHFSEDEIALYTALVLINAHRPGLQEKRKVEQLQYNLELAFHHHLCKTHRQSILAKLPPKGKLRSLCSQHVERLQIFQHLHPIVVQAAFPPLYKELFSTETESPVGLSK
Protocol: This approach is applicable to a wide variety of systems, and rigorous in theoretical interpretation through quantitation of equilibrium binding constants (KD).
The shift in the melting point described as a ΔTm is proportional to the concentration and affinity of the ligand. The compound potency may be compared as a rank order of either ATm values at a single compound concentration or in terms of KD values, estimated from concentration response curves.
ThermoFluor® experiments were carried out using instruments owned by Janssen Research and Discovery, L.L.C. through its acquisition of 3-Dimensional Pharmaceuticals, Inc. 1,8-ANS (Invitrogen) was used as a fluorescent dye. Protein and compound solutions are dispensed into black 384-well polypropylene PCR microplates (Abgene) and overlayed with silicone oil (1 µL, Fluka, type DC 200) to prevent evaporation.
Bar-coded assay plates are robotically loaded onto a thermostatically controlled PCR-type thermal block and then heated at a typical ramp-rate of 1 °C/minute for all experiments. Fluorescence was measured by continuous illumination with UV light (Hamamatsu LC6) supplied via fiber optic and filtered through a band-pass filter (380-400 nm; >6 OD cutoff). Fluorescence emission of the entire 384-well plate was detected by measuring light intensity using a CCD camera (Sensys, Roper Scientific) filtered to detect 500 ± 25 nm, resulting in simultaneous and independent readings of all 384 wells. Images were collected at each temperature, and the sum of the pixel intensity in a given area of the assay plate was recorded versus temperature. Reference wells contained RORyt without compounds, and the assay conditions were as follows: • 0.065 mg/mL RORγt • 60 µM 1,8-ANS • 100 mM Hepes, pH 7.0 • 10 mM NaCl • 2.5 mM GSH • 0.002% Tween-20
Project compounds were arranged in a pre-dosed mother plate (Greiner Bio-one) wherein compounds are serially diluted in 100% DMSO by 1:2 from a high concentration of 10 mM over 12 columns within a series (column 12 is a reference well containing DMSO, no compound). The compounds were robotically dispensed directly into assay plates (1x = 46 nL) using a Hummingbird capillary liquid handling instrument (Digilab). Following compound dispense, protein and dye in buffer was added to achieve the final assay volume of 3 µL, followed by 1 µL of silicone oil.

human RORγt LBD = target: T2, human RORγt LBD (Homo sapiens, UniProt P51449); experiment: RORγt (LBD) Reporter Assay (GAL4 luciferase, HEK293T cells); assay type: cell-based; conditions: for inhibition at 6 µM: HEK-293T; for inhibition at 6 µM / RORγt (LBD) Reporter Assay, % inhibition @ 6 µM: 6 µM compound; for IC50: compounds for 24 hours
T2 construct: expressed in transfected cells; host or cells: HEK293T
T2 sequence (P51449 258-518): T1 sequence (P51449 258-518)
Protocol: Compounds were assessed for RORgt functional modulation using either the RORgt ligand binding domain (LBD) reporter assay, or the RORgt full-length (FL) reporter assay.
A reporter assay was used to test functional activity of RORγt modulatory compounds on transcriptional activation driven by the RORγt LBD. Cells used in the assay were co-transfected with two constructs. The first construct, pBIND-RORγt LBD, contained the wild type human RORγt LBD fused to the DNA binding domain of the GAL4 protein. The second construct, pGL4.31 (Promega Cat no. C935A), contained multiple GAL4 responsive DNA elements upstream of firefly luciferase. […] The mutant construct was called pBIND-RORγt-AF2.
The pBIND vector contains the GAL4 DNA Binding Domain (GAL4 DBD) and the renilla luciferase gene under control of the SV40 promoter. Renilla luciferase expression serves as a control for transfection efficiency and cell viability.
The reporter assay was performed by transiently transfecting HEK293T cells with 5 µg of pBIND-RORγt LBD or pBIND-RORγt LBD-AF2 and 5 µg pGL4.31 (Promega Cat no. C935A) using Fugene 6 (Invitrogen Cat no. E2691) at a 1:6 ratio of DNA: Fugene 6 in a T-75 flask in which cells were at least 80% confluent. Twenty four hours after bulk transfection, cells were plated into 96-well plates at 50,000 cells/well in phenol-red free DMEM containing 5% Lipid Reduced FCS and Pen/Strep. Six hours after plating, cells were treated with compounds for 24 hours. Media was removed and cells were lysed with 50 µL 1x Glo Lysis Buffer (Promega). Dual Glo Luciferase Reagent (50 µL/well) was then added and firefly luciferase luminescence was read on an Envision after a ten minute incubation. Finally, Stop and Glo reagent (50 µL/well) was added and renilla luciferase luminescence was read on an Envision after a ten minute incubation. To calculate the effect of compounds on RORγt activity, the ratio of firefly to renilla luciferase was determined and plotted against compound concentration. Agonist compounds increase RORγt-driven luciferase expression, and antagonist or inverse agonist compounds decrease luciferase expression.

[2] = system: IL-17 production by CD4 T cells; experiment: Human Th17 Assay (IL-17 production by CD4 T cells); assay type: cell-based; conditions: IL-17 in supernatant after 3 days, Th17 differentiation conditions
Description: The human Thl7 assay tests the effect of RORyt modulatory compounds on IL-17 production by CD4 T cells under conditions which favor Th17 differentiation.
Total CD4^+ T cells were isolated from the peripheral blood mononuclear cells (PBMC) of healthy donors using a CD4^+ T cell isolation kit II, following the manufacturer's instructions (Miltenyi Biotec). Cells were resuspended in a medium of RPMI-1640 supplemented with 10% fetal bovine serum, penicillin, streptomycin, […], and β-mercaptoethanol and were added to 96-well plates at 1.5x10^5 per 100 µL per well. 50 µL of compound at titrated concentrations in DMSO were added into each well at final DMSO concentration at 0.2%. Cells were incubated for 1 hour, then 50 µL of Th17 cell differentiation medium was added to each well. The final concentrations of antibodies and cytokines (R&D Systems) in differentiation medium were: 3x10^6/mL anti-CD3/CD28 beads (prepared using human T cell activation/expansion kit, Miltenyi Biotec), 10 µg/mL anti-IL4, 10 µg/mL anti-IFNγ, 10 ng/mL IL1β, 10 ng/mL IL23, 50 ng/mL IL6, 3 ng/mL TGFβ and 20 U/mL IL2. Cells were cultured at 37 °C and 5% CO2 for 3 days. Supernatants were collected and the accumulated IL-17 in culture was measured by using MULTI-SPOT® Cytokine Plate following manufacture's instruction (Meso Scale Discovery). The plate was read using Sector Imager 6000, and IL-17 concentration was extrapolated from the standard curve. The IC50s were determined by GraphPad.

| Kd [1] [nM] | inhibition at 6 µM (human RORγt LBD) [%] | IC50 (human RORγt LBD) [nM] | IC50 [2] [nM] | IC50 ([2]; Homo sapiens, CD4+ T, 72 h) [nM] | RORγt (LBD) Reporter Assay, % inhibition @ 6 µM (human RORγt LBD) [%] | Compound |
| --- | --- | --- | --- | --- | --- | --- |
| 55 | 95 | 240 | 9.4 | – | – | Cc1ncc(C(O)c2ccc3nc(N4CCC4)c(Cc4ccc(C(F)(F)F)cc4)c(Cl)c3c2)n1C (single isomer, unassigned) [Example 22b, {2-Azetidin-1-yl-4-chloro-3-[4-(trifluoromethyl)benzyl]quinolin-6-yl}(1,2-dimethyl-1H-imidazol-5-yl)methanol] |
| 130 | 97 | 120 | – | 170 | – | COc1nc2ccc(C(O)c3ccc(C)nc3C)cc2c(Cl)c1Cc1ccc(C(F)(F)F)cc1 (single isomer, unassigned) [Example 14b, (4-Chloro-2-methoxy-3-(4-(trifluoromethyl)benzyl)quinolin-6-yl)(2,6-dimethylpyridin-3-yl)methanol] |
| 200 | – | 280 | 480 | – | 99 | Cc1ccc(C(O)c2ccc3nc(N4CCC4)c(Cc4ccc(C(F)(F)F)cc4)c(Cl)c3c2)c(C)n1 (single isomer, unassigned) [Example 23c, {2-Azetidin-1-yl-4-chloro-3-[4-(trifluoromethyl)benzyl]quinolin-6-yl}(2,6-dimethylpyridin-3-yl)methanol] |
| 110 | 98 | 220 | – | 380 | – | Cc1ccc(C(O)c2ccc3nc(N4CCC4)c(Cc4ccc(C(F)(F)F)cc4)c(Cl)c3c2)c(C)n1 (single isomer, unassigned) [Example 23b, {2-Azetidin-1-yl-4-chloro-3-[4-(trifluoromethyl)benzyl]quinolin-6-yl}(2,6-dimethylpyridin-3-yl)methanol] |
| 43 | – | ~400 | 2.9 | – | 96 | Cc1ncc(C(O)c2ccc3nc(N4CCC4)c(Cc4ccc(C(F)(F)F)cc4)c(Cl)c3c2)n1C (single isomer, unassigned) [Example 22c, {2-Azetidin-1-yl-4-chloro-3-[4-(trifluoromethyl)benzyl]quinolin-6-yl}(1,2-dimethyl-1H-imidazol-5-yl)methanol] |
| 190 | – | 450 | – | 2600 | 92 | Cc1ncc(C(O)c2ccc3nc(N4CCC4)c(Cc4ccc(-n5cccn5)cc4)c(Cl)c3c2)n1C (single isomer, unassigned) [Example 21c, {2-Azetidin-1-yl-4-chloro-3-[4-(1H-pyrazol-1-yl)benzyl]quinolin-6-yl}(1,2-dimethyl-1H-imidazol-5-yl)methanol] |
| 260 | – | 320 | – | 650 | 96 | COc1nc2ccc(C(O)c3cncn3C)cc2c(Cl)c1Cc1ccc(C(F)(F)F)cc1 (single isomer, unassigned) [Example 18c, (4-Chloro-2-methoxy-3-(4-(trifluoromethyl)benzyl)quinolin-6-yl)(1-methyl-1H-imidazol-5-yl)methanol] |
| 100 | – | 220 | 100 | – | 98 | COc1nc2ccc(C(O)c3ccc(C)nc3C)cc2c(Cl)c1Cc1ccc(C(F)(F)F)cc1 (single isomer, unassigned) [Example 14c, (4-Chloro-2-methoxy-3-(4-(trifluoromethyl)benzyl)quinolin-6-yl)(2,6-dimethylpyridin-3-yl)methanol] |
| 130 | – | 210 | 140 | – | 97 | COc1nc2ccc(C(O)c3cnnn3C)cc2c(Cl)c1Cc1ccc(C(F)(F)F)cc1 (single isomer, unassigned) [Example 17c, (4-Chloro-2-methoxy-3-(4-(trifluoromethyl)benzyl)quinolin-6-yl)(1-methyl-1H-1,2,3-triazol-5-yl)methanol] |
| 81 | 96 | 240 | 440 | – | – | COc1nc2ccc(C(O)c3cnnn3C)cc2c(Cl)c1Cc1ccc(C(F)(F)F)cc1 (single isomer, unassigned) [Example 17b, (4-Chloro-2-methoxy-3-(4-(trifluoromethyl)benzyl)quinolin-6-yl)(1-methyl-1H-1,2,3-triazol-5-yl)methanol] |

| Compound | Kd [1] [nM] | inhibition at 6 µM (human RORγt LBD) [%] | IC50 (human RORγt LBD) [nM] | IC50 [2] [nM] | IC50 ([2]; Homo sapiens, CD4+ T, 72 h) [nM] | RORγt (LBD) Reporter Assay, % inhibition @ 6 µM (human RORγt LBD) [%] |
| --- | --- | --- | --- | --- | --- | --- |
| COc1nc2ccc(C(O)c3cnnn3C)cc2c(Cl)c1Cc1ccc(-n2cccn2)cc1 (single isomer, unassigned) [Example 5b, (3-(4-(1H-Pyrazol-1-yl)benzyl)-4-chloro-2-methoxyquinolin-6-yl)(1-methyl-1H-1,2,3-triazol-5-yl)methanol] | – | – | – | 1500 | – | – |
| COc1nc2ccc(C(O)c3cnnn3C)cc2c(Cl)c1Cc1ccc(-n2cccn2)cc1 (single isomer, unassigned) [Example 5c, (3-(4-(1H-Pyrazol-1-yl)benzyl)-4-chloro-2-methoxyquinolin-6-yl)(1-methyl-1H-1,2,3-triazol-5-yl)methanol] | – | – | – | 610 | – | – |
